Experimental data as given in patent publication US6962713B2, “Spot-on formulations for combating parasites” (Merial, priority 1919, dated 2005).

Assay: Plasma kinetics of ivermectin after spot-on application at different doses in combination with fipronil to dogs
Type: in vivo, dog
Protocol: This study was undertaken in order to assess the linearity of the percutaneous passage of ivermectin after spot-on application of different doses of ivermectin (100, 250, 500 and 1000 μg.kg^−1) in combination with fipronil (10 mg.kg^−1) to the dog. Furthermore, the possibility of control both heartworms and gastro-intestinal nematodes was evaluated.
Twelve male Beagle dogs (allocated into 4 groups of 3 animals were applied spot-on formulations combining ivermectin (0.1%, 0.25%, 0.5% and 1%) and fipronil (10%) at a dose rate of 0.1 ml.kg^−1 (i.e. 100, 250, 500 and 1000 μg.kg^−1 of ivermectin and 10 mg.kg^−1 of fipronil).
The formulations are as follows: […]
The formulations were applied at one spot onto the skin between the shoulder blades.
Blood samples were collected at intervals up to 56 days post treatment.
The determination of ivermectin was carried out by HPLC after an automated solid/liquid extraction, using fluorescence detection, with limit of quantification of 100 pg.ml^−1. The determination of fipronil and its sulfone metabolite (RM1602) was carried out by HPLC with UV detection, with a limit of quantification of 20 ng.ml^−1 for fipronil and RM1602. Both methods were validated in terms of specificity, extraction recovery, linearity, precision and accuracy.

SMILES | plasma concentrations compared with those usually observed in dogs treated at the same dose in previous studies (spot-on, fipronil 10 mg.kg^−1, dogs) | plasma concentrations compared with those usually observed in dogs treated at the same dose in previous studies (dog, in vivo)
N#Cc1nn(-c2c(Cl)cc(C(F)(F)F)cc2Cl)c(N)c1S(=O)(=O)C(F)(F)F [RM1602] | significantly inferior | 
N#Cc1nn(-c2c(Cl)cc(C(F)(F)F)cc2Cl)c(N)c1[S+]([O-])C(F)(F)F (centres unmarked) [fipronil, 1-[2,6-Cl2-4-CF3 phenyl]-3-CN-4-[SO—CF3]-5-NH2 pyrazole] |  | significantly inferior
